What was measured:
[1] = tested on: stomach (necrosis and inflammation caused by ethanol); assay: oral cytoprotection against absolute-ethanol-induced stomach necrosis and inflammation (similar to Robert, U.S. Pat. No. 4,097,603); type: in vivo, rat (fasted, male); conditions: for cytoprotective potency relative to racemic form: optical isomer versus racemic form, Table 1 data; for Percent Protection, 2 mg/kg 1 hr: 2 mg/kg oral, 1 hour interval between administration of compound and subsequent administration of ethanol
Protocol: The data of Table 1 are from tests similar to one described by Robert [U.S. Pat. No. 4,097,603 (1978)] in which fasted, male rats were treated with 8-azaprostanoids orally. Then, at various times later they were treated orally with 1.0 ml of absolute ethanol. The rats were sacrificed after ethanol administration and the stomachs were removed, inspected, and rated. The ED50 values of Table 1 represent the doses of 8-azaprostanoids that gave 50% protection from the necrosis and inflammation of the stomach caused by ethanol. For comparison, values are given for the natural prostaglandin, PGE1, and for racemic 7-[2-oxo-5(4,4-difluoro-3-hydroxy-1n-dec-1(E)-enyl)-1-pyrrolidinyl]heptanoic acid, which is identified in Table 1 as compound 8. The corresponding racemic tert-butyl ester is identified as 7. The structures of 7 and 8, each of which is a mixture of 4 optical isomers, are as follows: [drawing 18]
*"1 hr" refers to the 1 hour interval between administration of compound
and subsequent administration of ethanol.
**"Peak Time" refers to the interval between administration of compound
and administration of ethanol at which greatest protection is observed.

PGE1; rat stomach strips = assay: antagonism of PGE1 in in vitro tests on rat stomach strips; conditions: relative to racemic form 7
Text: Some differences in biological activities of the racemic forms and different optical isomers of these 8-azaprostanoids can be seen in the data presented in Table 1.

CCCCCCC(F)(F)[C@H](O)/C=C/[C@H]1CCC(=O)N1CCCCCCC(=O)O (single isomer, unassigned) [8l(15R), 7-[2-oxo-5(R or S)-5-(4,4-difluoro-3(R or S)-3-hydroxy-ln-dec-1(E)enyl)-1-pyrrolidinyl]heptanoic acid]
cytoprotective potency relative to racemic form [1]: more potent as a cytoprotective agent than its racemic form 8

CCCCCCC(F)(F)C(O)/C=C/C1CCC(=O)N1CCCCCCC(=O)OC(C)(C)C (single isomer, unassigned) [7l(15R,S), tert-butyl 7-[2-oxo-5(R or S)-5-(4,4-difluoro-3(R,S)hydroxy-ln-dec-1(E)-enyl)-1-pyrrolidinyl]heptanoate]
Percent Protection, 2 mg/kg 1 hr [1]: 59%

CCCCCCC(F)(F)C(O)/C=C/C1CCC(=O)N1CCCCCCC(=O)OC(C)(C)C (single isomer, unassigned) [7d(15R,S), tert-butyl 7-[2-oxo-5-(S or R)-5-(4,4-difluoro-3(R,S)hydroxy-ln-dec-1(E)-enyl)-1-pyrrolidinyl]heptanoate]
Percent Protection, 2 mg/kg 1 hr [1]: -5% | cytoprotective potency relative to racemic form [1]: less potent than its racemic form 7 | potency as an antagonist of PGE1 (PGE1; rat stomach strips): more potent than 7 as an antagonist of PGE1

CCCCCCC(F)(F)[C@@H](O)/C=C/[C@H]1CCC(=O)N1CCCCCCC(=O)O (single isomer, unassigned) [8l(15S), 7-[2-oxo-5(R or S)-5-(4,4-difluoro-3(R or S)-3-hydroxy-ln-dec-1(E)enyl)-1-pyrrolidinyl]heptanoic acid]
Peak Time ([1]; interval between administration of compound and of ethanol at which greatest protection is observed): 15 min
